Laboratory results reported in US3948933A, “Pyrrolo[1,2-c]imidazolediones” (priority 1973, dated 1976).
Where two headings read alike, the source gives them in different places.

Columns and labels:
[1] = system: secondary conditioned response; test: inhibition of the secondary conditioned response in rats (anxiolytic and tranquilizing properties); format: in vivo; conditions: 60 mg/kg i.p.
Description: (§1) The depressant activity of the new pyrroloimidazole-diones on the C.N.S. of animals is evidenced by testing the compounds in mice according to the Irwin method. The tranquilizing and anxiolytic activity is evaluated on the basis of the secondary conditioned response in rats.

[2] = acute toxicity (LD50) in mice; conditions: mouse, in vivo, ip
[3] = system: C.N.S.; test: Irwin test (Irwin method) in mice, depressant activity on the C.N.S.; format: in vivo; conditions: Mus musculus, ip
Description: as §1
In experiments in mice with the representative compound α-2-(o-chlorophenyl)-5,6,7,7a-tetrahydro-1,3(2H)-dioxo-1H-pyrrolo[1,2-c]imidazolo-5-carboxylic acid, the following ED50 values were determined for parameters of the Irwin test which are related to sedative and hypnotic activities.

CCN(CC)C(=O)C1CCC2C(=O)N(c3ccccc3)C(=O)N12 (single isomer, unassigned) [Example 21, α(+)-5-diethylcarbamyl-2-phenyl-5,6,7,7a-tetrahydro-1H-pyrrolo[1,2-c]imidazole-1,3(2H)-dione]
Deconditioned/Conditioned ([1]; 60 mg/kg): 7/10

O=C(O)C1CCC2C(=O)N(c3ccccc3Cl)C(=O)N12 (stereo not drawn) [α-2-(o-chlorophenyl)-5,6,7,7a-tetrahydro-1,3(2H)-dioxo-1H-pyrrolo[1,2-c]imidazolo-5-carboxylic acid]
LD50 [2]: ~700 mg/kg | ED50 ([3]; read-out: ED50, Impairment of motor coordination): 100 mg/kg | ED50 ([3]; read-out: ED50, Minimal hypnotic dose): 200 mg/kg | ED50 ([3]; read-out: ED50, Righting reflex): 80 mg/kg | ED50 ([3]; read-out: ED50, Spontaneous activity): 100 mg/kg

CCNC(=O)C1CCC2C(=O)N(c3ccccc3)C(=O)N12 (stereo not drawn) [Example 14, α-5-ethylcarbamyl-2-phenyl-5,6,7,7a-tetrahydro-1H-pyrrolo[1,2-c]imidazole-1,3(2H)-dione]
Deconditioned/Conditioned [1]: 7/10

CCN(CC)C(=O)C1CCC2C(=O)N(c3cccc(C(F)(F)F)c3)C(=O)N12 (centres unmarked) [Example 37, 5-diethylcarbamyl-2-(m-trifluoromethyl)phenyl-5,6,7,7a-tetrahydro-1H-pyrrolo-[1,2-c]imidazole-1,3(2H)-dione]
Deconditioned/Conditioned [1]: 10/10

CCN(CC)C(=O)C1CCC2C(=O)N(c3ccccc3)C(=O)N12 (stereo not drawn) [Example 12, α-5-diethylcarbamyl-2-phenyl-5,6,7,7a-tetrahydro-1H-pyrrolo[1,2-c]imidazole-1,3(2H)-dione]
Deconditioned/Conditioned [1]: 8/10

CCN(CC)C(=O)C1CCC2C(=O)N(c3ccccc3)C(=O)N12 (single isomer, unassigned) [Example 22, α(-)-5-diethylcarbamyl-2-phenyl-5,6,7,7a-tetrahydro-1H-pyrrolo[1,2-c]imidazole-1,3(2H)-dione]
Deconditioned/Conditioned ([1]; 60 mg/kg): 6/10

CCN(CC)C(=O)C1CCC2C(=O)N(c3cccc(Cl)c3)C(=O)N12 (stereo not drawn) [Example 13, α-5-diethylcarbamyl-2-(m-chlorophenyl)-5,6,7,7a-tetrahydro-1H-pyrrolo[1,2-c]imidazole-1,3(2H)-dione]
Deconditioned/Conditioned [1]: 7/10
